From publication PMC11187126, “Structure and dynamics of the pyroglutamylated RF-amide peptide QRFP receptor GPR103” (Nature Communications, 2024)
Where two headings read alike, the source gives them in different places. No end group written: not given here.

Target: T1, GPR103 E203^ECL2A/Q211^5.35E/E297^6.59A (Homo sapiens, UniProt Q96P65, E203A/E297A/Q211E)
T1 construct: we used human full-length QRFPR-encoding plasmids; expressed in transfected cells; host or cells: HEK293 cells (HEK293A in the flow cytometry section), pCAGGS vector
T1 sequence (Q96P65 1-431 E203A/Q211E/E297A): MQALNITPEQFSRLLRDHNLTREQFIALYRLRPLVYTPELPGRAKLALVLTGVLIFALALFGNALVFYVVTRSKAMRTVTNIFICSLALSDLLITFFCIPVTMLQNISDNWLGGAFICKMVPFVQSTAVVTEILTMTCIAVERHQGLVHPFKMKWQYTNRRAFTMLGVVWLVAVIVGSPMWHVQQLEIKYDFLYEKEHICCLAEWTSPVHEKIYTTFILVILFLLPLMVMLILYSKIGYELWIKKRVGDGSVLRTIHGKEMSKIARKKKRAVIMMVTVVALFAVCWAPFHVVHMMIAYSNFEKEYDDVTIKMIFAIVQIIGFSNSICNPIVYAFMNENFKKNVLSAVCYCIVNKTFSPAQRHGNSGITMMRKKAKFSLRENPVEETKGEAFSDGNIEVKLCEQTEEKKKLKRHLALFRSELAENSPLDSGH
Assay: TGFα shedding assay; Exp. level >WT (1:1)
Type: cell-based
Protocol: For the TGFα shedding assay and the flow cytometry analysis, we used human full-length QRFPR-encoding plasmids. Specifically, GPR103 was N-terminally modified with an HA signal sequence followed by a FLAG epitope and then a flexible linker ([…]; the FLAG epitope is underlined) and inserted into the pCAGGS vector. Plasmid encoding GPR103 mutants were generated using Quickchange Site-Directed Mutagensis kit (Agilent).
The TGFα shedding assay was performed as described previously with minor modifications. Plasmid transfection was performed in a 6-well plate with a mixture of 500 ng (per well in a 6-well plate) AP-TGFα-encoding plasmid and 200 ng GPR103-encoding plasmid. After 1-day culture, the transfected cells were harvested by trypsinization, pelleted by centrifugation at 190 × g for 5 min, and washed once with 5 mM HEPES (pH 7.4)-containing Hank’s Balanced Salt Solution (HBSS). After centrifugation, the cells were resuspended in 8 mL of the HEPES-containing HBSS. The cell suspension was seeded in a 96-well culture plate (cell plate) at a volume of 90 μL (per well hereafter) and incubated in a 37 °C incubator with 5% CO2 for 30 min. […] After spinning the cell plates at 190 × g for 2 min, 80 μL of conditioned media was transferred to an empty 96-well plate (conditioned media (CM) plate). Then, 80 μL of AP reaction solution (10 mM p-nitrophenylphosphate (p-NPP), 120 mM Tris-HCl (pH 9.5), 40 mM NaCl, and 10 mM MgCl2) was dispensed into the cell plates and the CM plates. Absorbance at 405 nm of the plates was measured using a microplate reader (SpectraMax 340 PC384, Molecular Devices) before and after 1-h incubation at room temperature. Ligand-induced AP-TGFα release was calculated by subtracting spontaneous AP-TGFα release signal from ligand-induced AP-TGFα release signal. The AP-TGFα release signals were fitted to a four-parameter sigmoidal concentration–response curve, using the Prism 10 software (GraphPad Prism). For each replicate experiment, the pEC50 parameter (negative logarithmic values of EC50 values) of the individual GPR103 mutants were normalized to that of the wild-type GPR103 performed in parallel, and resulting ∆pEC50 values were used to denote ligand response activity of the mutants. […]
Exp. le vel: WT (1:5 0)Exp. le vel: WT (1:5 0)Exp. le vel: WT (1:5 0)Exp. le vel: WT (1:2 0)Exp. le vel: WT (1:2 0)Exp. le vel: WT (1:1 0) […]
L1 4N - t e r mA F2 5N - t e r mA I 2 6N - t e r mA Y 2 9N - t e r mA C 9 82 .5 7A T10 22 .6 1A Exp . l eve l: WT (1 :5)Exp . l evel : >WT (1 :1)Exp. le vel: WT (1:2 0)Exp. le vel: WT (1:2 0)Exp. le vel: WT (1:5 0)Exp . l eve l: WT (1 :1) […]
Exp. le vel: WT (1:1 0)Exp. le vel: WT (1:2 0) C 1 1 83 .2 5AExp. le vel: WT (1:5 0)Exp. le vel: WT (1:5 0)Exp. le vel: WT (1:2 0)Exp . l eve l: WT (1 :5) […]
Exp. le vel: WT (1:5 0)Exp. le vel: WT (1:1 0)Exp. le vel: WT (1:5 0) E203ECL2AExp . l evel : >WT (1 :1)Exp. le vel: WT (1:5 0)Exp. le vel: WT (1:5 0) […]
Exp . l eve l: WT (1 :1) F28Exp. le vel: WT (1:5 0) C 2 8 56 .4 7AExp. le vel: WT (1:2 0) WExp. le vel: WT (1:2 0) F28Exp. le vel: WT (1:5 0)Exp . l evel : >WT (1 :1) […]
Exp. le vel: WT (1:5 0)Exp. le vel: WT (1:5 0) C 3 2 77 .4 8AExp . l eve l: WT (1 :5)Exp . l evel : >WT (1 :1)Exp . l evel : >WT (1 :1) […]
Suppl eme nt ary Figure 1 | Mutational analysis of GPR103. […]
mutants. Data are presented as mean values ± SEM, normally n=3-5; dots), each performed in triplicate. b-d Cell-surface expression (b) and QRFP26-in-duced activation of GPR103 (c, d) were analyzed by the flow cytometry and the TGFα shedding assay, respectively. From the concentration–response curves (a), Emax (c) and ΔpEC50 (d) values relative to the wild type were calculated. Colors in the mutant bars indicate an expression level matching to that of titrated wild type. Statistical analyses were performed using the ordinary one-way ANOVA followed by Dunnett tests with the expression-matched […]

Work on TSGPLGNLAEELNGYSRKKGGFSFRF-NH2 [QRFP26] yielded an Emax (Exp. #1) of 103.81 % WT, an Emax (Exp. #2) of 100.88 % WT and an Emax (Exp. #3) of 112.76 % WT. It also gave an Emax (mean, read-out: Emax) of 106%, an EC50 (n = 3) of 427 nM and an Emax (n = 3, read-out: Emax) of 109 ± 2.9%.
